Measured values from patent publication US20260373093A1, “TIMESCALE-GUIDED MICROFLUIDIC SYNTHESIS OF POLYPHENOL-IRON III NETWORK NANOCAPSULES OF HYDROPHOBIC DRUGS” (Purdue Research Foundation, priority 2023, published 2026).
Values joined by “and” are separate entries in the source; they are usually repeats but may differ in a detail not shown here. Identical values can stand only once. Like-named read-outs stand apart in the source and are kept apart here.

Experiments:
[1] = system: Pa03C cells; assay: MTT cytotoxicity, Pa03C cells; format: cell-based; conditions: for cell viability: 1440 min
Procedure: Pa03C cells were seeded in 96-well plates at a density of 4000 cells per well and allowed to adhere for 24 hours. Cells were incubated with drug-free nanocapsules (pEGCGs), free paclitaxel, or EFN nanocapsules of paclitaxel at concentrations ranging from 0.001 to 10 µg/mL calculated by paclitaxel content at 37 °C and 5% CO2 for 24 hr. After the incubation, the cells were washed with PBS 3 times, and 100 μL fresh medium was added to each well. Then, cells were cultured for […] another 24 hours. After incubation, 100 μL fresh medium was changed to each well, and 10 μL MTT was added to each well, followed by a 4 h incubation for cleavage at 37 °C. Then 100 μL isopropanol with 0.04 N HCl was added to each well and mixed thoroughly with the medium by repeated pipetting. The result was read with a test wavelength of 570 nm and a reference wavelength of 630 nm using a Microplate Spectrophotometer. Experiments were performed in triplicate and presented as means±SD.

[2] = system: Pancl cells; assay: MTT cytotoxicity, Panc1 cells (curcumin); format: cell-based, human; conditions: dosages >40 μM
Procedure: Panc 10.05 or Pancl cells were seeded in 96-well plates at a density of 5,000 cells per well and allowed to adhere overnight. Panc10.05 cells were incubated with drug-free nanocapsules (pTAs), free paclitaxel, or TFN nanocapsules of paclitaxel at the concentrations ranging from 0.001 to 10 μg mL^−1 calculated by paclitaxel content at 37 °C and 5% CO2 for 24 hr. Pancl cells were incubated with pTAs, free curcumin, or TFN nanocapsules of curcumin at the concentration of 5-160 μM calculated by curcumin content at 37 °C and 5% CO2 for 48 hr. After the incubation, the cells were washed with PBS three times, and 100 μL fresh medium was added to each well. Then cells were cultured for another 24 hours. After incubation, 100 μL fresh medium was added to each well, and 10 μL MTT was added to each well, followed by a 4 h incubation for cleavage at 37 °C. Then 100 μL isopropanol with 0.04 N HCl was added to each well and mixed thoroughly with the medium by repeated pipetting. The result was read with a test wavelength of 570 nm and a reference wavelength of 630 nm using a Microplate Spectrophotometer. Experiments were performed in triplicate and presented as means±SD.

[3] = system: PANC-1 cells; assay: MTT cytotoxicity, PANC-1 cells (VPX); format: cell-based, human; conditions: 24 hr
Procedure: (§1) PANC-1 cells were seeded in 96-well plates at a density of 5000 cells per well and allowed to adhere for 24 hours. CAF19 cells were seeded in 96-well plates at a density of 1500 cells per well and allowed to adhere for 24 hours. Cells were incubated with drug-free nanocapsules (pTAs), free drug of VPX, or TFN nanocapsules of VPX at the concentrations ranging from 0.05 to 20 μM calculated by VPX content at 37 °C and 5% CO2 for 24 hr. After the incubation, the cells were washed with PBS 3 times, and 100 μL fresh medium was added to each well. Cells were cultured for another 24 hours. After incubation, 100 μL fresh medium was changed to each well, and 10 μL MTT was added to each well, followed by 4 hr incubation for cleavage at 37 °C. Then 100 μL isopropanol with 0.04 N HCl was added to each well and mixed thoroughly with the medium by repeated pipetting. The result was read with a test wavelength of 570 nm and a reference wavelength of 630 nm using a Microplate Spectrophotometer. Experiments were performed in triplicate and presented as means±SD.

[4] = system: CAF19 cells; assay: MTT cytotoxicity, CAF19 cells (VPX); format: cell-based; conditions: 24 hr
Procedure: as §1

[5] = cited from earlier work

## O=C(O[C@@H]1Cc2c(O)cc(O)cc2O[C@@H]1c1cc(O)c(O)c(O)c1)c1cc(O)c(O)c(O)c1 [EGCG, epigallocatechin-3-gallate]
[1]; EGCG on its own (from EFN cytotoxicity test)
  anticancer activity: significant anticancer activity

## COc1cc(/C=C/C(=O)CC(=O)/C=C/c2ccc(O)c(OC)c2)ccc1O [free curcumin, curcumin]
[2]
  suppression of cell growth: significant suppression of Pancl growth

## CCOC(=O)N[C@@H]1CC[C@@H]2[C@@H](C1)C[C@H]1C(=O)O[C@H](C)[C@H]1[C@H]2/C=C/c1ccc(-c2cccc(F)c2)cn1 [VPX, vorapaxar]
[3]; VPX treatment up to 20 μM
  cell viability: above 100%
[3]; up to 20 μM (VPX content)
  toxicity: no toxicity
[4]; VPX treatment up to 20 μM
  cell viability: above 100%
[4]; up to 20 μM (VPX content)
  toxicity: no toxicity
[5]; VPX
  water solubility: 1.4 μg/mL and ~ 3 μM

## CC(=O)O[C@H]1C(=O)[C@@]2(C)[C@H]([C@H](OC(=O)c3ccccc3)[C@]3(O)C[C@H](OC(=O)[C@H](O)[C@@H](NC(=O)c4ccccc4)c4ccccc4)C(C)=C1C3(C)C)[C@]1(OC(C)=O)CO[C@@H]1C[C@@H]2O [free PTX, paclitaxel]
[1]; PTX dosages >0.1 g/mL
  cell viability: ~ 50%
[1]; dosages of 1-10 μg/mL
  cell viability: ~ 50%
[5]; water
  water solubility: > 1 µg/mL

## C=C1CC[C@H](O)C/C1=C/C=C1\CCC[C@]2(C)[C@@H]([C@H](C)CCCC(C)C)CC[C@@H]12 [VD3, vitamin D]
[5]; room temperature
  water solubility: < 0.001 µg/mL
